From patent publication US20200222474A1, “COMPOSITIONS AND METHODS FOR INCREASING PHYTOCHEMICAL BIOAVAILABLITY AND BIOACTIVITY” (North Carolina State University, priority 2017, published 2020)

Test system: L. acidophilus NCFM
Test: RNA-seq transcriptional analysis of L. acidophilus NCFM growing on plant glycosides
Type: cell-based, Lactobacillus acidophilus
[1] = LBA0329 Putative cell division protein, COG D
[2] = LBA0466 Hypothetical protein, COG C
[3] = LBA0500 MSM operon repressor, COG K
[4] = LBA0545 Hypothetical protein, COG L
[5] = LBA0547 Putative site-specific recombinase, COG L
[6] = LBA0573 Putative transcriptional regulator, COG K
[7] = LBA0607 Putative transcriptional regulator, COG K
[8] = LBA0672 Putative phosphate starvation inducible protein stress related, COG J
[9] = LBA0753 Multi-drug-type permease, COG GEPR
[10] = LBA0886 Sugar kinase-putative transcriptional regulator, COG KG
[11] = LBA0887 Hypothetical protein, COG C
[12] = LBA0897 Putative Cro-like protein, COG K
[13] = LBA0910 L-lactate dehydrogenase, COG C
[14] = LBA1021 Putative transcriptional regulator, COG K
[15] = LBA1220 Pyridine mercuric reductase, COG C
[16] = LBA1392 Mucus binding protein precursor Mub, COG J
[17] = LBA1411 Fumarate reductase flavoprotein subunit, COG CS
[18] = LBA1436 Glycerol uptake facilitator protein, COG G
[19] = LBA1457 Galactose-1-epimerase, COG G
[20] = LBA1458 Galactose-1-phosphate uridylyltransferase, COG G
[21] = LBA1462 Beta-galactosidase, COG G
[22] = LBA1463 Lactose permease, COG G
[23] = LBA1465 Transcription repressor of beta-galactosidasegene, COG K
[24] = LBA1467 Beta-galactosidase large subunit (lactase), COG G
[25] = LBA1468 Beta-galactosidase small subunit, COG G

O=c1ccc2cc(O[C@@H]3O[C@H](CO)[C@@H](O)[C@H](O)[C@H]3O)c(O)cc2o1 [Esculin]
Log2 differential normalized TPM ratio compared to glucose (LBA0016 Fructokinase, COG KG): 1.9
Log2 differential normalized TPM ratio compared to lactose (LBA0016 Fructokinase, COG KG): 0.7
Transcripts per million (rpm) (LBA0016 Fructokinase, COG KG): 347.8 rpm
Log2 differential normalized TPM ratio compared to glucose [1]: 2.4
Log2 differential normalized TPM ratio compared to lactose [1]: 1.9
Transcripts per million (rpm) [1]: 88.3 rpm
Log2 differential normalized TPM ratio compared to glucose [2]: 2
Log2 differential normalized TPM ratio compared to lactose [2]: 0.5
Transcripts per million (rpm) [2]: 408.4 rpm
Log2 differential normalized TPM ratio compared to glucose [3]: 0.5
Log2 differential normalized TPM ratio compared to lactose [3]: −1.1
Transcripts per million (rpm) [3]: 78.4 rpm
Log2 differential normalized TPM ratio compared to glucose [4]: 1.9
Log2 differential normalized TPM ratio compared to lactose [4]: −0.1
Transcripts per million (rpm) [4]: 286.5 rpm
Log2 differential normalized TPM ratio compared to glucose [5]: 2.1
Log2 differential normalized TPM ratio compared to lactose [5]: 0.4
Transcripts per million (rpm) [5]: 50.6 rpm
Log2 differential normalized TPM ratio compared to glucose [6]: 2.6
Log2 differential normalized TPM ratio compared to lactose [6]: 2.5
Transcripts per million (rpm) [6]: 592 rpm
Log2 differential normalized TPM ratio compared to glucose [7]: 1.8
Log2 differential normalized TPM ratio compared to lactose [7]: 1.4
Transcripts per million (rpm) [7]: 179.3 rpm
Log2 differential normalized TPM ratio compared to glucose [8]: 1.8
Log2 differential normalized TPM ratio compared to lactose [8]: 0.9
Transcripts per million (rpm) [8]: 5745.2 rpm
Log2 differential normalized TPM ratio compared to glucose [9]: 1.6
Log2 differential normalized TPM ratio compared to lactose [9]: 2.3
Transcripts per million (rpm) [9]: 155 rpm
Log2 differential normalized TPM ratio compared to glucose [10]: 1.2
Log2 differential normalized TPM ratio compared to lactose [10]: 0.9
Transcripts per million (rpm) [10]: 15.5 rpm
Log2 differential normalized TPM ratio compared to glucose [11]: 1.3
Log2 differential normalized TPM ratio compared to lactose [11]: 0.1
Transcripts per million (rpm) [11]: 151.3 rpm
Log2 differential normalized TPM ratio compared to glucose [12]: −0.9
Log2 differential normalized TPM ratio compared to lactose [12]: 1.5
Transcripts per million (rpm) [12]: 1.5 rpm
Log2 differential normalized TPM ratio compared to glucose [13]: 2.7
Log2 differential normalized TPM ratio compared to lactose [13]: 1.7
Transcripts per million (rpm) [13]: 845.1 rpm
Log2 differential normalized TPM ratio compared to glucose [14]: 2.4
Log2 differential normalized TPM ratio compared to lactose [14]: 2
Transcripts per million (rpm) [14]: 797.3 rpm
Log2 differential normalized TPM ratio compared to glucose [15]: 2
Log2 differential normalized TPM ratio compared to lactose [15]: 1.1
Transcripts per million (rpm) [15]: 851.3 rpm
Log2 differential normalized TPM ratio compared to glucose [16]: 2.3
Log2 differential normalized TPM ratio compared to lactose [16]: 2.5
Transcripts per million (rpm) [16]: 537 rpm
Log2 differential normalized TPM ratio compared to glucose [17]: 1.7
Log2 differential normalized TPM ratio compared to lactose [17]: 0.6
Transcripts per million (rpm) [17]: 7.3 rpm
Log2 differential normalized TPM ratio compared to glucose [18]: 4.9
Log2 differential normalized TPM ratio compared to lactose [18]: 1.1
Transcripts per million (rpm) [18]: 84.9 rpm
Log2 differential normalized TPM ratio compared to glucose [19]: 3.2
Log2 differential normalized TPM ratio compared to lactose [19]: −2.4
Transcripts per million (rpm) [19]: 144.7 rpm
Log2 differential normalized TPM ratio compared to glucose [20]: 3.4
Log2 differential normalized TPM ratio compared to lactose [20]: −2.3
Transcripts per million (rpm) [20]: 144 rpm
Log2 differential normalized TPM ratio compared to glucose (LBA1459 Galactokinase, COG G): 2.3
Log2 differential normalized TPM ratio compared to lactose (LBA1459 Galactokinase, COG G): −2.4
Transcripts per million (rpm) (LBA1459 Galactokinase, COG G): 123.5 rpm
Log2 differential normalized TPM ratio compared to glucose [21]: −0.5
Log2 differential normalized TPM ratio compared to lactose [21]: −6.5
Transcripts per million (rpm) [21]: 13 rpm
Log2 differential normalized TPM ratio compared to glucose [22]: −0.3
Log2 differential normalized TPM ratio compared to lactose [22]: −5
Transcripts per million (rpm) [22]: 47.8 rpm
Log2 differential normalized TPM ratio compared to glucose (LBA1464 Transposase, COG L): −1
Log2 differential normalized TPM ratio compared to lactose (LBA1464 Transposase, COG L): −3.4
Transcripts per million (rpm) (LBA1464 Transposase, COG L): 94.4 rpm
Log2 differential normalized TPM ratio compared to glucose [23]: −0.3
Log2 differential normalized TPM ratio compared to lactose [23]: −3.4
Transcripts per million (rpm) [23]: 47.3 rpm
Log2 differential normalized TPM ratio compared to glucose [24]: 2.2
Log2 differential normalized TPM ratio compared to lactose [24]: −6.7
Transcripts per million (rpm) [24]: 24.1 rpm
Log2 differential normalized TPM ratio compared to glucose [25]: 0.8
Log2 differential normalized TPM ratio compared to lactose [25]: −5.6
